Laboratory results reported in US3954769A, “Dibenzo[b,f]thiepins” (Hoffman-La Roche Inc., priority 1973, dated 1976).
Entries after “also recorded” stand apart in the source; their conditions may differ.

Key:
[1] = system: rats; test: Determination of cataleptic effect (undesired side effect); type: in vivo; conditions: in words
Procedure: (§1) I. Determination of cataleptic effect (undesired side effect)
(§2) A cataleptic effect ("wax-like rigidity", that is, abnormally long retention of an enforced body position) is considered to be a disturbing side effect with central depressants and neuroleptically active compounds and indicates motor disturbances. […] The following compounds were tested:
(§3) The test animals are considered to be cataleptic when the homolateral extremities remain in the crossed position for at least 10 seconds. The number of cataleptic animals is recorded every 30 minutes over a 6-hour period. The ED50 is the dose at which 50% of the animals are cataleptic.

[2] = system: homovanillinic acid (turnover of dopamine in the basal ganglions); test: Determination of homovanillinic acid (HVA), turnover of dopamine in brain; type: in vivo, rats; conditions: for Increase in HVA, %: rats, two hours prior to being killed, titer in untreated rats set at 100%; for activity in HVA test (in words): compared with chlorpromazine
Procedure: II. Determination of Homovanillinic Acid
Two hours prior to being killed, rats are injected with the test substance.
Thereafter, the homovanillinic acid is extracted from the supernatant portion of a homogenous mixture of the brains into butyl acetate and later into aqueous solution and is oxidized with potassium ferric cyanide to a fluorescent dimer. […] The homovanillinic acid titer in untreated rats is arbitrarily set at 100%.

[3] = Determination of cataleptic effect (undesired side effect); type: in vivo, rats; conditions: rat, in vivo, ip; rats, intraperitoneally; recorded every 30 minutes over a 6-hour period; read-out: ED50 (dose at which 50% of the animals are cataleptic)
Procedure: as §1, §2, §3

[4] = system: mice; test: Determination of toxicity in mice (24-hour-values); type: in vivo; conditions: in words
Source text: (§4) III. Determination of toxicity

[5] = Determination of toxicity in mice (24-hour-values); type: in vivo; conditions: mouse, in vivo, po, read-out: ED50 (toxicity)
Source text: as §4

| Structure (SMILES) | cataleptic effect (in words) [1] | Increase in HVA, % ([2]; 20 mg/kg. p.o.) | cataleptic effect (in words) ([1]; maleate) | TD50 at 6 h [3] | toxicity (in words) [4] | LD50 at 24 h [5] | activity in HVA test (in words) [2] | Increase in HVA, % ([2]; 50 mg/kg. p.o.) |
| --- | --- | --- | --- | --- | --- | --- | --- | --- |
| CN(C)CCCN1c2ccccc2Sc2ccc(Cl)cc21 [Chlorpromazine, reference compound] | does demonstrate cataleptic effects | 320% |  |  |  |  |  |  |
| CSc1ccc2c(c1)C(N1CCN(C)CC1)Cc1cc(C)ccc1S2.O=C(O)/C=C\C(=O)O (centres unmarked) [Product B, 1-[10,11-dihydro-2-methyl-8-(methylthio)-dibenzo[b,f]thiepin-10-yl]-4-methylpiperazine maleate] |  |  | considerably lower cataleptic effect than chlorpromazine; also recorded: superior to chlorpromazine due to the lower cataleptic side effect | 25 mg/kg | superior to chlorpromazine | 450 mg/kg | nearly as potent as that of chlorpromazine | 320% |
| COc1ccc2c(c1)CC(N1CCN(C)CC1)c1cc(SC)ccc1S2.O=C(O)/C=C\C(=O)O (centres unmarked) [Product A, 1-[10,11-dihydro-2-methoxy-8-(methylthio)-dibenzo[b,f]thiepin-10-yl]-4-methylpiperazine maleate] |  |  | no cataleptic effect; also recorded: complete absence of cataleptic side effect | > 100 mg/kg | superior to chlorpromazine | 1880 mg/kg | somewhat less active than chlorpromazine | 185% |
